These results are taken from ChEMBL document CHEMBL1148890, “Design, synthesis, and structure-activity relationship of carbamate-tethered aryl propanoic acids as novel PPARalpha/gamma dual agonists” (Bioorg Med Chem Lett, 2007).

Experiment [1] has as its target T1, Peroxisome proliferator-activated receptor alpha (Homo sapiens, UniProt Q07869).
T1 sequence (Q07869 whole entry): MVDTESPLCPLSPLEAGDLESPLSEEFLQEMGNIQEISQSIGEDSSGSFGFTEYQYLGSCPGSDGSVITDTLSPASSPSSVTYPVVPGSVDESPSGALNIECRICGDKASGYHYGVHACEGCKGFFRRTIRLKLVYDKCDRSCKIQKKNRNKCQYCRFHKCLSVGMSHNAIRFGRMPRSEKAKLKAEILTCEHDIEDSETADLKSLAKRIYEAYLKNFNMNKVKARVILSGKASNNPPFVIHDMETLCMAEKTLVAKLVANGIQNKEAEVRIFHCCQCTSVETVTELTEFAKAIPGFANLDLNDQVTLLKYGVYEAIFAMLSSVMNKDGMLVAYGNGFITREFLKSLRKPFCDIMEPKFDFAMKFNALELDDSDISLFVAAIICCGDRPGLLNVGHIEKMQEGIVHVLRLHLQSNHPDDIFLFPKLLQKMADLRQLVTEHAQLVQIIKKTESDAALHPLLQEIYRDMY
Description: Agonist activity at human PPARalpha in CV1 cells by GAL4 transactivation assay after 24 hrs

The target in experiment [2] is T2, Peroxisome proliferator-activated receptor gamma (Homo sapiens, UniProt P37231).
T2 sequence (P37231 whole entry): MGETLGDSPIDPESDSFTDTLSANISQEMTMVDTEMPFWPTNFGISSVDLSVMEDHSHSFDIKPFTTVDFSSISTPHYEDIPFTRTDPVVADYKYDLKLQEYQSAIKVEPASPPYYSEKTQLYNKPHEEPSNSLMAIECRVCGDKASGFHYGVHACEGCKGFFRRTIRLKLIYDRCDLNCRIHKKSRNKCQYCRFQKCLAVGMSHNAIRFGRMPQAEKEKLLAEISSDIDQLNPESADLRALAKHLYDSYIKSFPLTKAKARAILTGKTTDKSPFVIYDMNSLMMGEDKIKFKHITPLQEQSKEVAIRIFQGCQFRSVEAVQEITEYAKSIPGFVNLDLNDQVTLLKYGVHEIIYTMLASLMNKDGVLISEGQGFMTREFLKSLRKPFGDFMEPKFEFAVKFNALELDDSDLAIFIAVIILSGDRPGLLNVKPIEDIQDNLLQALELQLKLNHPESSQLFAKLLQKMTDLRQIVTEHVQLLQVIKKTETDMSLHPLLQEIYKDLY
Description: Agonist activity at human PPARgamma in CV1 cells by GAL4 transactivation assay after 24 hrs

As usually defined, the EC50 is the concentration that produces a half-maximal response. Low values mean a more potent agent, high ones a less potent agent.

Consider `CCO[C@@H](Cc1ccc(CCCOC(=S)NCc2ccccc2)cc1)C(=O)O`, for which the figures for the half-maximal effective concentration (EC50) in experiment [1] and in experiment [2] were 1470 nM and 1400 nM, respectively. As for `CCO[C@@H](Cc1ccc(OCC(OC(=S)NCc2ccccc2)c2ccccc2)cc1)C(=O)O` (some centres undefined), the EC50 in experiment [1] is 6210 nM; in experiment [2], 7170 nM.

On to `CCO[C@@H](Cc1ccc(CCC(OC(=S)NCCc2ccccc2)c2ccccc2)cc1)C(=O)O` (some centres undefined), for which the EC50 in experiment [1] was 880 nM; in experiment [2] it was 490 nM.

Consider `CCNC(=S)OC(CCc1ccc(C[C@H](OCC)C(=O)O)cc1)c1ccccc1` (some centres undefined), for which the EC50 in experiment [1] is 20400 nM; in experiment [2] it was 5390 nM. Turning to `CCO[C@@H](Cc1ccc(CCC(OC(=S)NCc2ccccc2)c2ccccc2)cc1)C(=O)O` (some centres undefined), the EC50 in experiment [2] amounted to 580 nM. For the compound `CCO[C@H](Cc1ccc(CCC(OC(=S)NCCc2ccccc2)c2ccccc2)cc1)C(=O)O` (some centres undefined), the EC50 in experiment [1] amounted to 2770 nM; in experiment [2], 1050 nM.

As for `CCCCNC(=S)OC(CCc1ccc(C[C@H](OCC)C(=O)O)cc1)c1ccccc1` (some centres undefined), the values for the EC50 in experiment [1] and in experiment [2] were 7260 nM and 3600 nM, respectively. Turning to `CCO[C@@H](Cc1ccc(CCC(OC(=S)NCC2CCCCC2)c2ccccc2)cc1)C(=O)O` (some centres undefined), the EC50 was determined as 10700 nM in experiment [1] and 1060 nM in experiment [2]. In the same order, the values of `CCO[C@@H](Cc1ccc(CCC(OC(=O)NCc2ccccc2)c2ccccc2)cc1)C(=O)O` (some centres undefined) are 6050 nM and 1420 nM. In the same order, the values of `CCO[C@H](Cc1ccc(CCC(OC(=S)NCc2ccc(C(C)(C)C)cc2)c2ccccc2)cc1)C(=O)O` (some centres undefined) are 380 nM and 140 nM. `CCO[C@H](Cc1ccc(CCC(OC(=S)NCc2ccccc2)c2ccccc2)cc1)C(=O)O` (some centres undefined) returned an EC50 in experiment [2] of 350 nM. `CCO[C@@H](Cc1ccc(CCC(O)c2ccccc2)cc1)C(=O)O` (some centres undefined): the EC50 in experiment [1] came out at 1510 nM; in experiment [2], 300 nM. With `CCO[C@@H](Cc1ccc(CCC(OC(=S)NCc2ccc(C(C)(C)C)cc2)c2ccccc2)cc1)C(=O)O` (some centres undefined), the results for the EC50 in experiment [1] and in experiment [2] were 3270 nM and 160 nM, respectively. As to `CCO[C@@H](Cc1ccc(CCC(OC(=S)Nc2ccccc2)c2ccccc2)cc1)C(=O)O` (some centres undefined), the EC50 in experiment [1] was found to be 5250 nM; in experiment [2] it was 4580 nM. For `CCCNC(=S)OC(CCc1ccc(C[C@H](OCC)C(=O)O)cc1)c1ccccc1` (some centres undefined), the EC50 is 3940 nM in experiment [1] and 3480 nM in experiment [2].

In experiment [1], `Cc1ccc(C)c(OCCCC(C)(C)C(=O)O)c1` [GEMFIBROZIL] showed an EC50 of 193000 nM.
